In ChEMBL document CHEMBL5303573, “Mapping human microbiome drug metabolism by gut bacteria and their genes” (Nature, 2019):

Experiments:
[1] = bacteroides fragilis, 12 h, 2 µM
Description: The drug is tested on Bacteroides fragilis strain: DS-208 for biotransformation. The drug concentrations were measured before and after a 12-h incubation by liquid-chromatography-coupled mass spectrometry (LC–MS)

[2] = bacteroides fragilis, 12 h, 2 µM; remark: listed apart in the source
Description: The drug is tested on Bacteroides fragilis strain: 3397 (T10) for biotransformation. The drug concentrations were measured before and after a 12-h incubation by liquid-chromatography-coupled mass spectrometry (LC–MS)

[3] = The drug is tested on Ruminococcus gnavus strain: ATCC29149 for biotransformation. The drug concentrations were measured before and after a 12-h incubation by liquid-chromatography-coupled mass spectrometry (LC–MS); details: mediterraneibacter gnavus, 2 µM
[4] = The drug is tested on Ruminococcus lactaris strain: ATCC29176 for biotransformation. The drug concentrations were measured before and after a 12-h incubation by liquid-chromatography-coupled mass spectrometry (LC–MS); details: 2 µM
[5] = The drug is tested on Bacteroides finegoldii strain: DSM17565 for biotransformation. The drug concentrations were measured before and after a 12-h incubation by liquid-chromatography-coupled mass spectrometry (LC–MS); details: 2 µM
[6] = bacteroides stercoris, 12 h, 2 µM
Description: The drug is tested on Bacteroides stercoris strain: ATCC43183 for biotransformation. The drug concentrations were measured before and after a 12-h incubation by liquid-chromatography-coupled mass spectrometry (LC–MS)

[7] = parabacteroides johnsonii, 12 h, 2 µM
Description: The drug is tested on Parabacteroides johnsonii strain: DSM18315 for biotransformation. The drug concentrations were measured before and after a 12-h incubation by liquid-chromatography-coupled mass spectrometry (LC–MS)

[8] = The drug is tested on Bacteroides cellulosilyticus strain: DSM14838 for biotransformation. The drug concentrations were measured before and after a 12-h incubation by liquid-chromatography-coupled mass spectrometry (LC–MS); details: 2 µM
[9] = bacteroides thetaiotaomicron, 12 h, 2 µM
Description: The drug is tested on Bacteroides thetaiotaomicron strain: 3731 for biotransformation. The drug concentrations were measured before and after a 12-h incubation by liquid-chromatography-coupled mass spectrometry (LC–MS)

[10] = The drug is tested on Bacteroides vulgatus strain: ATCC8482 for biotransformation. The drug concentrations were measured before and after a 12-h incubation by liquid-chromatography-coupled mass spectrometry (LC–MS); details: phocaeicola vulgatus, 2 µM
[11] = The drug is tested on Enterobacter cancerogenus strain: ATCC35316 for biotransformation. The drug concentrations were measured before and after a 12-h incubation by liquid-chromatography-coupled mass spectrometry (LC–MS); details: 2 µM
[12] = The drug is tested on Anaerotruncus colihominis strain: DSM17241 for biotransformation. The drug concentrations were measured before and after a 12-h incubation by liquid-chromatography-coupled mass spectrometry (LC–MS); details: 2 µM
[13] = parabacteroides distasonis, 12 h, 2 µM
Description: The drug is tested on Parabacteroides distasonis strain: ATCC8503 for biotransformation. The drug concentrations were measured before and after a 12-h incubation by liquid-chromatography-coupled mass spectrometry (LC–MS)

[14] = The drug is tested on Alistipes indistinctus strain: DSM22520 for biotransformation. The drug concentrations were measured before and after a 12-h incubation by liquid-chromatography-coupled mass spectrometry (LC–MS); details: 2 µM
[15] = The drug is tested on Eubacterium hallii strain: DSM3353 for biotransformation. The drug concentrations were measured before and after a 12-h incubation by liquid-chromatography-coupled mass spectrometry (LC–MS); details: anaerobutyricum hallii, 2 µM
[16] = The drug is tested on Bifidobacterium breve strain: DSM20213 for biotransformation. The drug concentrations were measured before and after a 12-h incubation by liquid-chromatography-coupled mass spectrometry (LC–MS); details: 2 µM
[17] = The drug is tested on Bacteroides coprophilus strain: DSM18228 for biotransformation. The drug concentrations were measured before and after a 12-h incubation by liquid-chromatography-coupled mass spectrometry (LC–MS); details: 2 µM
[18] = The drug is tested on Eubacterium ventriosum strain: ATCC27560 for biotransformation. The drug concentrations were measured before and after a 12-h incubation by liquid-chromatography-coupled mass spectrometry (LC–MS); assay type: ADME; design: dose 2 uM, timepoint 0 vs 12 hours; details: 2 µM
[19] = The drug is tested on Clostridium scindens strain: ATCC35704 for biotransformation. The drug concentrations were measured before and after a 12-h incubation by liquid-chromatography-coupled mass spectrometry (LC–MS); details: 2 µM
[20] = The drug is tested on Anaerococcus hydrogenalis strain: DSM7454 for biotransformation. The drug concentrations were measured before and after a 12-h incubation by liquid-chromatography-coupled mass spectrometry (LC–MS); details: 2 µM

Row | Structure (SMILES) | Bacterial Biotransformation [1] | Bacterial Biotransformation [2] | Bacterial Biotransformation [3] | Bacterial Biotransformation [4] | Bacterial Biotransformation [5] | Bacterial Biotransformation [6] | Bacterial Biotransformation [7] | Bacterial Biotransformation [8] | Bacterial Biotransformation [9] | Bacterial Biotransformation [10] | Bacterial Biotransformation [11] | Bacterial Biotransformation [12] | Bacterial Biotransformation [13] | Bacterial Biotransformation [14] | Bacterial Biotransformation [15] | Bacterial Biotransformation [16] | Bacterial Biotransformation [17] | Bacterial Biotransformation [18] | Bacterial Biotransformation [19] | Bacterial Biotransformation [20]
1 | CO[C@]12C[C@@H](COC(=O)c3cncc(Br)c3)CN(C)[C@@H]1Cc1cn(C)c3cccc2c13 [NICERGOLINE] | Compound NOT metabolized | Compound NOT metabolized | Compound NOT metabolized | Compound NOT metabolized | Compound NOT metabolized | Compound NOT metabolized | Compound NOT metabolized | Compound metabolized | Compound NOT metabolized | Compound metabolized | Compound NOT metabolized | Compound NOT metabolized | Compound NOT metabolized | Compound NOT metabolized | Compound NOT metabolized | Compound NOT metabolized | Compound NOT metabolized | Compound NOT metabolized | Compound NOT metabolized | 
2 | Fc1ccc([C@@H]2CCNC[C@H]2COc2ccc3c(c2)OCO3)cc1 [PAROXETINE] | Compound NOT metabolized | Compound NOT metabolized | Compound NOT metabolized | Compound NOT metabolized | Compound metabolized | Compound metabolized | Compound metabolized | Compound metabolized | Compound metabolized | Compound NOT metabolized | Compound metabolized | Compound metabolized | Compound NOT metabolized | Compound NOT metabolized | Compound NOT metabolized | Compound NOT metabolized | Compound NOT metabolized | Compound NOT metabolized | Compound NOT metabolized | Compound metabolized
3 | Cc1ccc(S(=O)(=O)NC(=O)NN2CC3CCCC3C2)cc1 (stereo not drawn) [GLICLAZIDE] | Compound NOT metabolized | Compound metabolized | Compound NOT metabolized | Compound NOT metabolized | Compound NOT metabolized | Compound NOT metabolized | Compound NOT metabolized | Compound NOT metabolized | Compound metabolized | Compound metabolized | Compound NOT metabolized | Compound NOT metabolized | Compound NOT metabolized | Compound NOT metabolized | Compound NOT metabolized | Compound NOT metabolized | Compound NOT metabolized | Compound NOT metabolized | Compound NOT metabolized | Compound NOT metabolized
4 | CN1CCN(C2=Nc3ccccc3Oc3ccc(Cl)cc32)CC1.O=C(O)CCC(=O)O [LOXAPINE SUCCINATE] | Compound NOT metabolized | Compound NOT metabolized | Compound NOT metabolized | Compound NOT metabolized | Compound NOT metabolized | Compound NOT metabolized | Compound NOT metabolized | Compound NOT metabolized | Compound NOT metabolized | Compound NOT metabolized | Compound NOT metabolized | Compound NOT metabolized | Compound NOT metabolized | Compound NOT metabolized | Compound NOT metabolized | Compound NOT metabolized | Compound NOT metabolized | Compound NOT metabolized |  | Compound NOT metabolized
5 | C[C@H]1O[C@@H](O[C@H]2[C@@H](O)C[C@H](O[C@H]3[C@@H](O)C[C@H](O[C@H]4CC[C@@]5(C)[C@H](CC[C@@H]6[C@@H]5C[C@@H](O)[C@]5(C)[C@@H](C7=CC(=O)OC7)CC[C@]65O)C4)O[C@@H]3C)O[C@@H]2C)C[C@H](O)[C@@H]1O [DIGOXIN] | Compound metabolized | Compound metabolized | Compound NOT metabolized | Compound NOT metabolized |  | Compound metabolized | Compound metabolized | Compound NOT metabolized | Compound NOT metabolized | Compound metabolized | Compound NOT metabolized | Compound NOT metabolized | Compound NOT metabolized | Compound NOT metabolized | Compound NOT metabolized | Compound NOT metabolized | Compound metabolized | Compound NOT metabolized | Compound NOT metabolized | Compound NOT metabolized
6 | COc1ccc2c(c1)c(CC(=O)O)c(C)n2C(=O)c1ccc(Cl)cc1 [INDOMETHACIN] | Compound metabolized | Compound metabolized | Compound NOT metabolized |  | Compound metabolized | Compound metabolized | Compound metabolized | Compound metabolized | Compound metabolized | Compound metabolized | Compound NOT metabolized | Compound NOT metabolized | Compound metabolized | Compound metabolized | Compound NOT metabolized | Compound NOT metabolized | Compound metabolized | Compound metabolized | Compound NOT metabolized | Compound NOT metabolized
7 | O=c1[nH]c2ccccc2n1CCCN1CCC(n2c(=O)[nH]c3cc(Cl)ccc32)CC1 [DOMPERIDONE] | Compound NOT metabolized | Compound NOT metabolized | Compound NOT metabolized | Compound NOT metabolized | Compound NOT metabolized | Compound NOT metabolized | Compound NOT metabolized | Compound NOT metabolized | Compound NOT metabolized | Compound NOT metabolized | Compound NOT metabolized | Compound NOT metabolized | Compound NOT metabolized | Compound NOT metabolized | Compound NOT metabolized | Compound NOT metabolized | Compound NOT metabolized | Compound NOT metabolized |  | Compound NOT metabolized
8 | Cc1cc2c(cc1S(N)(=O)=O)S(=O)(=O)CCC2 | Compound NOT metabolized | Compound NOT metabolized | Compound NOT metabolized | Compound NOT metabolized |  | Compound NOT metabolized | Compound NOT metabolized | Compound NOT metabolized | Compound NOT metabolized | Compound NOT metabolized | Compound NOT metabolized |  | Compound NOT metabolized | Compound NOT metabolized | Compound NOT metabolized | Compound NOT metabolized | Compound NOT metabolized | Compound NOT metabolized | Compound NOT metabolized | Compound NOT metabolized
